Like-named read-outs stand apart in the source and are kept apart here.
How the values were obtained:
Serotonin 5-HT2A (human) = Serotonin 5-HT2A (human) (Homo sapiens (Human), UniProt P28223); assay: 5-HT2A receptor binding, [3H]-ketanserin competition in membrane fractions; conditions: 1 nM [3H]-ketanserin, Cheng-Prusoff, N=1-3
5-HT2A = 5-HT2A (Homo sapiens (Human), UniProt P28223); assay: 5-HT2A Gq-mediated calcium flux functional assay; type: cell-based
5-HT2B = 5-HT2B (Homo sapiens (Human), UniProt P41595); assay: 5-HT2B Gq-mediated calcium flux functional assay; type: cell-based
Sequence of 5-HT2B (P41595 whole entry): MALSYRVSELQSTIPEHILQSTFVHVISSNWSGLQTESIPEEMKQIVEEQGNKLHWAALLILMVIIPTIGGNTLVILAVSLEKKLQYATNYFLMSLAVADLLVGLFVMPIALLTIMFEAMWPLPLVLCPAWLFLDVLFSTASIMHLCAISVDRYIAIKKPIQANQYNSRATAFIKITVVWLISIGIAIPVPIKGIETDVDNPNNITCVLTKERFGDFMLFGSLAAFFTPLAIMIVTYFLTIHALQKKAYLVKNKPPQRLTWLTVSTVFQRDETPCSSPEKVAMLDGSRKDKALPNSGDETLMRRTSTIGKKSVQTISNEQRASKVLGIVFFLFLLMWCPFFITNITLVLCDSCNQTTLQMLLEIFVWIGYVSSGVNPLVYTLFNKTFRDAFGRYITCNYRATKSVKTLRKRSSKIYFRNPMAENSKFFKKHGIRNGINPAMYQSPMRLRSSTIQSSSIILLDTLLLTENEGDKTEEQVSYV

5-HT2C = 5-HT2C (Homo sapiens (Human), UniProt P28335); assay: 5-HT2C Gq-mediated calcium flux functional assay; type: cell-based
Sequence of 5-HT2C (P28335 whole entry, looked up): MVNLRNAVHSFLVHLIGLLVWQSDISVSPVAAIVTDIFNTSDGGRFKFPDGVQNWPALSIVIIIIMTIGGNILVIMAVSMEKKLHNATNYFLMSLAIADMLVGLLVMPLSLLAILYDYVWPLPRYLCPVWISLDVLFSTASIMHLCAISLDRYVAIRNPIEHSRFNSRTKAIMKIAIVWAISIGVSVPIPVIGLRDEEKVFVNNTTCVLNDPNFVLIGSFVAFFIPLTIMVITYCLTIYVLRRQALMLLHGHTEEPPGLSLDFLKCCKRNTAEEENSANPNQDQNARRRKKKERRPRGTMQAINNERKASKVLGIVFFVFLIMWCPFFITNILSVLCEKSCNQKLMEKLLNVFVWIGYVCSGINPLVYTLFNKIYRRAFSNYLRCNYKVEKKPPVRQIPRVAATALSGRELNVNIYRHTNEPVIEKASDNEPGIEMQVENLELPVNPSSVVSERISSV

5-HT1A = 5-HT1A (Homo sapiens (Human), UniProt P08908); assay: 5-HT1A Gi/o-mediated cAMP inhibition, GloSensor assay; type: cell-based
C57BL/6J mice [1] = assay: Head-Twitch Response (HTR) in mice; type: in vivo; conditions: Mus musculus, ip, 0.5 h
Method: Male C57BL/6J mice (6-8 weeks old) were obtained from Jackson Laboratories (Bar Harbor, ME) and housed in a vivarium at the University of California San Diego, an AAALAC-approved animal facility that meets all federal and state requirements for care and treatment of laboratory animals. All animal experiments were carried out in accordance with NIH guidelines and were approved by the UCSD Institutional Animal Care and Use Committee. Mice were housed up to four per cage in a climate-controlled room on a reverse-light cycle (lights on at 1900 h, off at 0700 h). Animals were provided with ad libitum access to food and water, with the exception of during behavioral testing.
Testing was conducted between 1000 and 1800 h. Head movements were recorded using a head-mounted magnet and a magnetometer coil as described in Halberstadt et al. (Psychopharmacology, 2013, 227(4):727-739). For the head mounted magnet, mice were anesthetized, an incision was made in the scalp, and a neodymium magnet was attached to the dorsal surface of the cranium using dental cement. Following a 2-week recovery period, behavioral experiments were conducted in a well-lit room. At least 7 days occurred between sessions to avoid any carryover effects. Test substances (i.e., dimethyltryptamine (DMT), diethyltryptamine (DET), psilocybin, 6-fluoro-diethyltryptamine (6-F-DET), compounds 3-4, 6, 9, 12-13, 22, 33, 41, 69, 88, 166, and 178) were administered intraperitoneally (IP) at a volume of 5 mL/kg. Mice were treated with vehicle (saline) or 6 doses of the test compound and then placed in a glass cylinder surrounded by a magnetometer coil and tested for 30 min. Coil voltage was filtered (1 kHz lowpass), digitized (20 kHz sampling rate) and saved to disk using a Powerlab/8SP with LabChart v 7.3.2 (ADInstruments, Colorado Springs, CO).
The entire 30 min recordings were examined for head twitches. Established procedures based on artificial intelligence were used to identify head twitches in the recordings (Scientific Reports, 2020, 10(1):1-12). HTR counts were analyzed using one-way analyses of variance (ANOVA), followed by post hoc pairwise comparisons between individual groups and vehicle using Dunnett's multiple comparisons test. […] Median effective doses (ED50 values) and 95% confidence intervals (95% CI) were calculated using nonlinear regression (Prism 9.0.2, GraphPad Software, San Diego, CA) (Table 4 and FIGS. 1-3).

[2] = Metabolic stability in cryopreserved human hepatocytes; type: in vitro ADME; conditions: cryopreserved hepatocytes, human hepatocytes, 1 μM, 37° C.
Method: (§1) The metabolic stability of a test compounds were assessed by monitoring disappearance of each compound in the presence of cryopreserved hepatocytes for up to 1 hour at 37° C. Following protein precipitation and centrifugation, the samples were analyzed by UPLC-MS-MS. Test Compound stock solutions (10 mM) were diluted 1 in 100 (2 μL 10 mM DMSO stock+198 μL 50:50 acetonitrile:water) to provide a 100 μM working solution. Following addition of test compounds to buffer, samples were pre-incubated at 37° C. for 5 minutes prior to initiating the incubation by the addition of test compounds to hepatocytes (these were held at 37° C. during pre-incubation period). Aliquots were sampled at 0, 5, 10, 20, 40 and 60 min and added to ice cold acetonitrile to terminate the reaction and precipitate proteins. All samples were mixed, centrifuged, and the supernatants were analyzed by UPLC-MS-MS using a Phenomenex Luna Omega […], C18 100 Å, 50×2.1 mm column. The final incubation conditions were as follows: hepatocytes 0.5×10^6 viable cells/mL, test compound 1 μM (n=1), acetonitrile concentration<0.01% (v/v) and DMSO concentration<0.01% (v/v). The intrinsic clearance (Clint) and half-life (T1/2) values are determined from the slope of the parent depletion curve. Positive control compounds with known metabolic clearance were included (diltiazem and naloxone).

human hepatocytes = assay: as above; type: in vitro ADME; conditions: qualitative statement
Method: as §1

[3] = In vivo intravenous pharmacokinetic study in rats; design: species or system Sprague Dawley rats; conditions: rat, mean; for Vd: iv, 1 mg/kg
Method: For the in vivo stability study described herein, 1 mg/kg of drug was administered by intravenous injection (i.e., dose volume 2 mL/kg, vehicle 5% DMSO:95% hydroxypropyl-beta-cyclodextrin (20% w/v in water)) to three male Sprague Dawley rats (˜300 g at time of dosing). Blood samples (˜240 μL) were collected via venipuncture at various time points (5, 15, 30, 60 120 240, 480 and 1,440 min) into K2EDTA-coated tubes. The samples were spun at 10,000 rpm (9,600×G) for 2 minutes. 100 μL of the resulting plasma was then collected and stored at −80° C. until analyzed by HPLC as described above.
Compound 3 administered intravenously (1 mg/kg); Vehicle: 5% DMSO, 95% 2-hydroxypropyl-β-cyclodextrin (HPBCD) (20% w/v in water); Plasma concentrations were quantified at multiple time points by UHPLC-MS-MS; N=3.

C57BL/6J mice [4] = conditions: reported values of known 5HT2A agonists run under comparable conditions; dash = ED50 could not be estimated; cited from earlier work
[5] = male, Sprague Dawley, plasma, intravenous 1 mg/kg, N=3

SMILES: CCC(C)N(C)CCc1c[nH]c2ccc(F)cc12 (centres unmarked) [Example 3, N-(2-(5-fluoro-1H-indol-3-yl)ethyl)-N-methylbutan-2-amine]
- 5-HT2A pKi ± SEM (Serotonin 5-HT2A (human)): 6.23 ± 0.30
- EC50 (5-HT2A): 3.72 nM
- 5-HT2A-Ca2+ FLUX Emax (% 5-HT) (5-HT2A; IA = Inactive, N=1-3): 94.8 ± 0.8 % 5-HT
- EC50 (5-HT2B): 9.12 nM
- 5-HT2B-Ca2+ FLUX Emax (% 5-HT) (5-HT2B; IA = Inactive, N=1-3): 37.5 ± 1.5 % 5-HT
- EC50 (5-HT2C): 49 nM
- 5-HT2C-Ca2+ FLUX Emax (% 5-HT) (5-HT2C; IA = Inactive, N=1-3): 56.0 ± 0.9 % 5-HT
- EC50 (5-HT1A): 3890 nM
- 5-HT1A-cAMP Emax (% 5-HT) (5-HT1A; cAMP inhibition, 0.2 μM isoproterenol, IA = Inactive): 83.3 ± 5.7 % 5-HT
- ED50 (C57BL/6J mice [1]; read-out: HTR ED50 μmol/kg (95% CI)): 6.28 µmol/kg
- ED50 (C57BL/6J mice [1]; read-out: HTR ED50 mg/kg (95% CI)): 1.79 mg/kg
- half-life at 1 μM [2]: 0.183 h
- hepatocyte CLint at 1 μM ([2]; read-out: Clint (μL/min/10^6 cells)): 132 µL/min/1e6 cells
- metabolism by human hepatocytes (human hepatocytes): rapidly metabolized
- AUC [3, 5]: 594 ng·h/mL
- AUC(0-inf) [3, 5]: 597 ng·h/mL
- C0 [3, 5]: 2490 ng/mL
- clearance [3, 5]: 29.5 mL/min/kg
- half-life ([3]; male, Sprague Dawley, plasma, intravenous 1 mg/kg, N=3, read-out: Half-Life (converted)): 1.09 h
- Vd ([3]; male, Sprague Dawley, plasma, N=3, read-out: Vss): 0.999 L/kg
- Vd ([3]; male, Sprague Dawley, plasma, N=3, read-out: Vz): 3.04 L/kg
- AUC % Extrapolation to C0 ([3]; intravenous 1 mg/kg, N=3): 27.7%
- AUC % Extrapolation to Inf ([3]; intravenous 1 mg/kg, N=3): 0.570%
- half-life ([3]; intravenous 1 mg/kg, N=3): 1.09 h

SMILES: CN(C)CCc1c[nH]c2cccc(OP(=O)(O)O)c12 [Psilocybin]
- HTR ED50 μmol/kg (95% CI) (C57BL/6J mice [4]): 1.40 µmol/kg
- HTR ED50 mg/kg (95% CI) (C57BL/6J mice [4]): 0.38 mg/kg

Source: patent US20240286998A1, “F[…], ANALOGUES THEREOF, AND METHODS USING SAME” (Saint Joseph's University, priority 2021, published 2024)
